{"source": "patent US20230107642A1", "about": "(Erasca, Inc., priority 2020, published 2023)"}
{"molecular_target": "T1, Cys12 of the KRAS 4B G12C protein (Homo sapiens, UniProt P01116, G12C)", "T1 construct": "This protein contained 188 amino acids in total, including an N-terminal 6-Histidine tag; made in house; host or cells: E. coli BL21", "experiment": "In vitro covalent adduct formation (CAF) assay, LC-MS intact mass", "assay_type": "binding", "settings": "10 uM compound, 60 min", "procedure,_shortened": "(§1)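 Percent covalent modification from intact-mass LC-MS, by relative free versus adducted protein (adducts within 1 Da of expected mass). Reaction: 10 μM compound with 5 μM E. coli-expressed, GDP-exchanged KRAS 4B G12C in TBS pH 7.4, 4% DMSO, 1 h at 22° C.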", "units": {"% CAF 10 uM @ 60 min": "%"}}
{"compound": "C=CC(=O)N1C[C@H](C)N(c2nc(=O)n3c4c(c(-c5cc(C=O)c(F)cc5F)c(C(F)(F)F)cc24)SCC2(COC2)C3)C[C@H]1C", "note": "[Example 1425, 5-(8′-((2S,5R)-4-acryloyl-2,5-dimethylpiperazin-1-yl)-6′-oxo-10′-(trifluoromethyl)-2′H,4′H,6′H-spiro[oxetane-3,3′-[1,4]thiazepino[2,3,4-ij]quinazolin]-11′-yl)-2,4-difluorobenzaldehyde]", "% CAF 10 uM @ 60 min": 69.2}
{"compound": "C=CC(=O)N1[C@H](C)CN(c2nc(=O)n3c4c(c(-c5cc(Br)c(F)cc5F)c(C(F)(F)F)cc24)SCC2(COC2)C3)C[C@@H]1C", "note": "[Example 1452, 8′-((3S,5R)-4-acryloyl-3,5-dimethylpiperazin-1-yl)-11′-(5-bromo-2,4-difluorophenyl)-10′-(trifluoromethyl)-2′H,4′H,6′H-spiro[oxetane-3,3′-[1,4]thiazepino[2,3,4-ij]quinazolin]-6′-one]", "% CAF 10 uM @ 60 min": 97}
{"compound": "C=CC(=O)N1C[C@H](C)N(c2nc(=O)n3c4c(c(-c5cccc6cnn(C)c56)c(C(F)(F)F)cc24)SC[C@@H]3CN2CCN(CC)CC2)C[C@H]1C", "note": "(atropisomer, axis not shown) [Example 1382, (3S,10S)-7-((2S,5R)-4-acryloyl-2,5-dimethylpiperazin-1-yl)-3-((4-ethylpiperazin-1-yl)methyl)-10-(1-methyl-1H-indazol-7-yl)-9-(trifluoromethyl)-2,3-dihydro-5H-[1,4]thiazino[2,3,4-ij]quinazolin-5-one]", "% CAF 10 uM @ 60 min": 49.1}
{"compound": "C=CC(=O)N1[C@H](C)CN(c2nc(=O)n3c4c(c(-c5ccc(F)c(Cl)c5)c(C(F)(F)F)cc24)SC[C@H](N2CCOCC2)C3)C[C@@H]1C", "note": "[Example 1336, (R)-8-((3S,5R)-4-acryloyl-3,5-dimethylpiperazin-1-yl)-11-(3-chloro-4-fluorophenyl)-3-morpholino-10-(trifluoromethyl)-3,4-dihydro-2H,6H-[1,4]thiazepino[2,3-4-ij]quinazolin-6-one]", "% CAF 10 uM @ 60 min": 85.5}
{"compound": "C=CC(=O)N1[C@H](C)CN(c2nc(=O)n3c4c(c(-c5ccc(F)cc5)c(C(F)(F)F)cc24)SC[C@@H]3CN2CCN(C3CC3)CC2)C[C@@H]1C", "note": "[Example 1333, (S)-7-((3S,5R)-4-acryloyl-3,5-dimethylpiperazin-1-yl)-3-((4-cyclopropylpiperazin-1-yl)methyl)-10-(4-fluorophenyl)-9-(trifluoromethyl)-2,3-dihydro-5H-[1,4]thiazino[2,3,4-ij]quinazolin-5-one]", "% CAF 10 uM @ 60 min": 61}
{"compound": "C=CC(=O)N1C[C@H](C)N(c2nc(=O)n3c4c(c(-c5cc(Cl)c(F)cc5F)c(C(F)(F)F)cc24)SCC2(CCOCC2)C3)C[C@H]1C", "note": "[Example 1435, 8′-((2S,5R)-4-acryloyl-2,5-dimethylpiperazin-1-yl)-11′-(5-chloro-2,4-difluorophenyl)-10′-(trifluoromethyl)-2,3,5,6-tetrahydro-2′H,4′H,6′H-spiro[pyran-4,3′-[1,4]thiazepino[2,3,4-ij]quinazolin]-6′-one]", "% CAF 10 uM @ 60 min": 84}
{"compound": "[2H]C([2H])([2H])OC[C@H]1CSc2c(-c3ccc(F)cc3F)c(C(F)(F)F)cc3c(N4C[C@@H](C)N(C(=O)C=C)[C@@H](C)C4)nc(=O)n1c23", "note": "[Example 1418, (3S)-7-((3S,5R)-4-acryloyl-3,5-dimethylpiperazin-1-yl)-10-(2,4-difluorophenyl)-3-((methoxy-d3)methyl)-9-(trifluoromethyl)-2,3-dihydro-5H-[1,4]thiazino[2,3,4-ij]quinazolin-5-one]", "% CAF 10 uM @ 60 min": 95.4}
{"compound": "C=CC(=O)N1[C@H](C)CN(c2nc(=O)n3c4c(c(-c5cc(Cl)c(F)cc5F)c(C(F)(F)F)cc24)SCC(COC)(COC)C3)C[C@@H]1C", "note": "(atropisomer, axis not shown) [Example 1421, (R)-8-((3S,5R)-4-acryloyl-3,5-dimethylpiperazin-1-yl)-11-(5-chloro-2,4-difluorophenyl)-3,3-bis(methoxymethyl)-10-(trifluoromethyl)-3,4-dihydro-2H,6H-[1,4]thiazepino[2,3,4-ij]quinazolin-6-one]", "% CAF 10 uM @ 60 min": 91}
{"compound": "C=CC(=O)N1CCN(c2nc(=O)n3c4c(c(-c5ccc(F)c(Cl)c5)c(C(F)(F)F)cc24)SC[C@@H]3COCOC)CC1", "note": "[Example 1362, (S)-7-(4-acryloylpiperazin-1-yl)-10-(3-chloro-4-fluorophenyl)-3-((methoxymethoxy)methyl)-9-(trifluoromethyl)-2,3-dihydro-5H-[1,4]thiazino[2,3,4-ij]quinazolin-5-one]", "% CAF 10 uM @ 60 min": 96.2}
{"molecular_target": "T1, Cys12 of the KRAS 4B G12C protein", "experiment": "In vitro covalent adduct formation (CAF) assay, LC-MS intact mass", "assay_type": "binding", "settings": "10 uM compound, 60 min incubation", "procedure,_shortened": "as §1", "units": {"% CAF 10 uM @ 60 min": "%"}}
{"compound": "C=CC(=O)N1[C@H](C)CN(c2nc(=O)n3c4c(c(-c5cc(Cl)c(F)cc5F)c(C(F)(F)F)cc24)SCC2(COC2)C3)C[C@@H]1C", "note": "(atropisomer, axis not shown) [Example 1125, (S)-8′-((3S,5R)-4-acryloyl-3,5-dimethylpiperazin-1-yl)-11′-(5-chloro-2,4-difluorophenyl)-10′-(trifluoromethyl)-2′H,4′H,6′H-spiro[oxetane-3,3′-[1,4]thiazepino [2,3,4-ij]quinazolin]-6′-one]", "% CAF 10 uM @ 60 min": 92.1}
{"compound": "C=CC(=O)N1C[C@H](C)N(c2nc(=O)n3c4c(c(-c5ccc(F)cc5F)c(C(F)(F)F)cc24)SCC2(COC2)C3)C[C@H]1C", "note": "(atropisomer, axis not shown) [Example 1110, (R)-8′-((2S,5R)-4-acryloyl-2,5-dimethylpiperazin-1-yl)-11′-(2,4-difluorophenyl)-10′-(trifluoromethyl)-2′H,4′H,6′H-spiro[oxetane-3,3′-[1,4]thiazepino [2,3,4-ij]quinazolin]-6′-one]", "% CAF 10 uM @ 60 min": 96.1}
{"compound": "C=CC(=O)N1[C@H](C)CN(c2nc(=O)n3c4c(c(-c5ccc(F)cc5F)c(C(F)(F)F)cc24)SCC2(CN(CC)C2)C3)C[C@@H]1C", "note": "[Example 1104, 8-((3S,5R)-4-acryloyl-3,5-dimethylpiperazin-1-yl)-11-(2,4-difluorophenyl)-1′-ethyl-10-(trifluoromethyl)-2H-spiro[[1,4]thiazepino[2,3,4-ij]quinazoline-3,3′-azetidin]-6(4H)-one]", "% CAF 10 uM @ 60 min": 97.2}
{"molecular_target": "T1, Cys12 of the KRAS 4B G12C protein", "experiment": "In vitro covalent adduct formation (CAF) assay, LC-MS intact mass", "assay_type": "binding", "settings": "10 μM compound, after 1 hour", "procedure,_shortened": "as §1", "units": {"CAF (% after 1 hour)": "%"}}
{"compound": "C=CC(=O)N1[C@H](C)CN(c2nc(=O)n3c4c(c(-c5ccc(F)cc5)c(C(F)(F)F)cc24)SC[C@@H](OCF)C3)C[C@@H]1C", "note": "[Example 1217, (S)-8-((3S,5R)-4-acryloyl-3,5-dimethylpiperazin-1-yl)-3-(fluoromethoxy)-11-(4-fluorophenyl)-10-(trifluoromethyl)-3,4-dihydro-2H,6H-[1,4]thiazepino[2,3,4-ij]quinazolin-6-one]", "CAF (% after 1 hour)": 95}
{"compound": "C=CC(=O)N1[C@H](C)CN(c2nc(=O)n3c4c(c(-c5cc(Cl)c(F)cc5F)c(C(F)(F)F)cc24)SC[C@@H](Oc2cc(C)on2)C3)C[C@@H]1C", "note": "[Example 1230, (3S,11R)-8-((3S,5R)-4-acryloyl-3,5-dimethylpiperazin-1-yl)-11-(5-chloro-2,4-difluorophenyl)-3-((5-methylisoxazol-3-yl)oxy)-10-(trifluoromethyl)-3,4-dihydro-2H,6H-[1,4]thiazepino[2,3,4-ij]quinazolin-6-one]", "CAF (% after 1 hour)": 94}
{"compound": "C=C(F)C(=O)N1[C@H](C)CN(c2nc(=O)n3c4c(c(-c5ccc(F)cc5)c(C(F)(F)F)cc24)SC[C@@H](OC)C3)C[C@@H]1C", "note": "[Example 1222, (S)-8-((3S,5R)-4-(2-Fluoroacryloyl)-3,5-dimethylpiperazin-1-yl)-11-(4-fluorophenyl)-3-methoxy-10-(trifluoromethyl)-3,4-dihydro-2H,6H-[1,4]thiazepino[2,3,4-ij]quinazolin-6-one]", "CAF (% after 1 hour)": 59}
{"compound": "C=CC(=O)N1[C@H](C)CN(c2nc(=O)n3c4c(c(-c5ccc(F)cc5F)c(C(F)(F)F)cc24)SCCC3)C[C@@H]1C", "note": "[Example 1227, 8-((3S,5R)-4-acryloyl-3,5-dimethylpiperazin-1-yl)-11-(2,4-difluorophenyl)-10-(trifluoromethyl)-3,4-dihydro-2H,6H-[1,4]thiazepino[2,3,4-ij]quinazolin-6-one]", "CAF (% after 1 hour)": 93}
{"compound": "C=C(F)C(=O)N1CCN(c2nc(=O)n3c4c(c(-c5ccc(F)cc5)c(C(F)(F)F)cc24)SC[C@@H](OC)C3)CC1", "note": "[Example 1223, (S)-8-(4-(2-Fluoroacryloyl)piperazin-1-yl)-11-(4-fluorophenyl)-3-methoxy-10-(trifluoromethyl)-3,4-dihydro-2H,6H-[1,4]thiazepino[2,3,4-ij]quinazolin-6-one]", "CAF (% after 1 hour)": 57}
{"molecular_target": "T1, Cys12 of the KRAS 4B G12C protein", "experiment": "In vitro covalent adduct formation (CAF) assay, LC-MS intact mass", "assay_type": "binding", "settings": "after 60 min", "procedure,_shortened": "as §1", "units": {"CAF (% binding after 60 min)": "%"}}
{"compound": "C=CC(=O)N1CCN(c2nc(=O)n3c4c(c(-c5cc(Cl)c(F)cc5F)c(C(F)(F)F)cc24)SC[C@@H](OCCOC)C3)CC1", "note": "[Example 1023, (3S)-8-(4-acryloylpiperazin-1-yl)-11-(5-chloro-2,4-difluorophenyl)-3-(2-methoxyethoxy)-10-(trifluoromethyl)-3,4-dihydro-2H,6H-[1,4]thiazepino[2,3,4-ij]quinazolin-6-one]", "CAF (% binding after 60 min)": 97}
{"compound": "C=CC(=O)N1[C@H](C)CN(c2nc(=O)n3c4c(c(-c5ccc(F)c(Cl)c5)c(C(F)(F)F)cc24)SC[C@H](OCOC)C3)C[C@@H]1C", "note": "[Example 1013, (R)-8-((3S,5R)-4-acryloyl-3,5-dimethylpiperazin-1-yl)-11-(3-chloro-4-fluorophenyl)-3-(methoxymethoxy)-10-(trifluoromethyl)-3,4-dihydro-2H,6H-[1,4]thiazepino[2,3,4-ij]quinazolin-6-one]", "CAF (% binding after 60 min)": 95}
{"compound": "C=CC(=O)N1[C@H](C)CN(c2nc(=O)n3c4c(c(-c5ccc(F)c(Cl)c5)c(C(F)(F)F)cc24)SC[C@@H](OC)C3)C[C@@H]1C", "note": "[Example 1046, (S)-8-((3S,5R)-4-acryloyl-3,5-dimethylpiperazin-1-yl)-11-(3-chloro-4-fluorophenyl)-3-methoxy-10-(trifluoromethyl)-3,4-dihydro-2H,6H-[1,4]thiazepino[2,3,4-ij]quinazolin-6-one]", "CAF (% binding after 60 min)": 96}
